This assay deals with (UniProt A0A4D6XHN3). The assay is described as follows: ITC titration of E6B08_RS28125 with L-ornithine at different pH. It counts as binding, P. putida 1290. As to conditions: 25°C, pH 9.0, read-out: KD at pH optimum.

The results in this text go back to publication PMC9600550, “The pH Robustness of Bacterial Sensing” (mBio, 2022).

Each structure is given as a SMILES string.

Sequence of (UniProt A0A4D6XHN3) (A0A4D6XHN3 24-265 limits assumed): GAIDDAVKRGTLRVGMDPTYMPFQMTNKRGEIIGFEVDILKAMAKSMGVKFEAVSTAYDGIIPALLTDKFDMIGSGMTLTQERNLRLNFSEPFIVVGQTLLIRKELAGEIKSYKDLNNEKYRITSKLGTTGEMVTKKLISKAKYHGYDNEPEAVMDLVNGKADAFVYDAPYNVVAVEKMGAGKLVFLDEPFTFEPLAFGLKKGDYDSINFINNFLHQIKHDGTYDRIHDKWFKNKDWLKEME
Protocol: To assess the pH dependence of ligand-binding, freshly purified proteins were dialyzed overnight into the buffers described in Table S1 and submitted to microcalorimetric titration.
Freshly purified proteins were dialyzed into the buffers specified in Table S1 and introduced into the sample cell of an VP-microcalorimeter (MicroCal). Proteins at 15 to 100 μM were titrated with 0.25 to 10 mM ligand solutions that were made up in dialysis buffer. For pH-active ligands, the pH of the ligand solutions was adjusted to that of the dialysis buffer by the addition of concentrated HCl or NaOH. Titrations of MBP and McpV-LBD were conducted at 15°C to favor endothermic contributions to binding heats, whereas the remaining titrations were carried out at 25°C. Raw titration data were integrated, corrected for ligand-dilution heats and normalized with the ligand concentrations. Resulting data were fitted with the “One Binding site model” of the MicroCal version of ORIGIN. Provided are the dissociation constants derived from one experiment and the error of curve-fitting.

A word on the Kd: it is the constant that tells how readily two partners part at equilibrium. Regarding `NCCC[C@H](N)C(=O)O` [L-ornithine], the dissociation constant Kd stood at 660 nM.
